Reference: patent US11633394B2, “Substituted alkynylene compounds as anticancer agents” (Aurigene Oncology Limited, priority 2018, dated 2023)

Assays:
[1] = test system: NCI-H1792 cells; experiment: Anti proliferative activity in NCI-H1792 cells by XTT assay; format: cell-based; details: H1792 cell line; for IC50: 72 hours incubation; for viability at 30 µM / % Viability (at 30 μM): 72 hours
Method: Example 78: Determination of Anti Proliferative Activity in NCI-H1792 Cells by XTT Assay
NCI-H1792 cells (ATCC CRL-5895) were plated at 2000 cells/well in 96 well flat clear bottom plates (Corning, Cat. No 3596) using complete RPMI media. After 24 hours, compounds of present invention were added to cells from 20 mM stocks made in DMSO (Sigma Cat no. D2650). Each concentration of compound was tested in triplicate with DMSO concentration not exceeding a final percentage of 0.3 in the cells. After 72 hours of incubation in CO2 incubator, XTT (Invitrogen, Cat. no X6493) was added to the wells. XTT was dissolved in serum free media at 1 mg/ml and absorbance readings were taken in spectrophotometer at 465 nm. The data was analysed using graph pad prism software. Positive control (100% survival)=Cells in complete media with 0.3% DMSO; Negative control/blank (0% survival)=Media alone containing 0.3% DMSO.
(§1) The compounds of the present invention were screened in the above mentioned assay and the results are tabulated below.

[2] = test system: NCI-H2122 cells; experiment: Anti proliferative activity in NCI-H2122 cells by XTT assay; format: cell-based; details: H2122 cell line; for IC50: 8 days (192 hour) incubation; for viability at 30 µM: 8 days
Method: Example 79: Determination of Anti Proliferative Activity in NCI-H2122 Cells by XTT Assay
NCI-H2122 cells (ATCC CRL-5985) were plated at 1000 cells/well in 96 well flat clear bottom plates (Corning, Cat. No 3596) using complete RPMI-1640 media. After 24 hours, compounds of present invention were added to cells from 10 mM stocks made in DMSO (Sigma Cat no. D2650). Each concentration of compound was tested in triplicate with DMSO concentration not exceeding a final percentage of 0.3 in the cells. Complete RPMI-1640 media changed at Day 3 (72 hour) and Day 6 (144 hour) along with compounds of current invention. After 8 days (192 hour) of incubation assay terminated using 50 μl of XTT reagent (Invitrogen, Cat. no X6493). XTT reagent was made by dissolving 1 mg/mi XTT in serum free media with addition of 25 μM Phenazine methosulfate (sigma Cat. no P9625). Absorbance readings were taken in spectrophotometer at 465 nm. The data was analysed using graph pad prism software. Positive control (100% survival)=Cells in complete media with 0.3% DMSO; Negative control/blank (0% survival)=Media alone containing 0.3% DMSO.
as §1

SMILES | IC50 ([1]; Homo sapiens, NCI-H1792, 72 h) [µM] | viability at 30 µM ([1]; Homo sapiens, NCI-H1792, 72 h) [%] | other results
C=CC(=O)N(C)[C@@H]1CCCC[C@H]1N(C)C(=O)NC(C)C#Cc1ccc(Cl)c(Cl)c1 (single isomer, unassigned) [Example 48b] |  |  | IC50 [2]: 10 to 25 µM
C=C(C)C(=O)N1CCN(C(=O)NC(C)C#Cc2ccc(Cl)c(Cl)c2)CC1 (racemic) [Example 43, N-(4-(3,4-dichlorophenyl)but-3-yn-2-yl)-4-methacryloylpiperazine-1-carboxamide] |  |  | IC50 ([2]; Homo sapiens, NCI-H2122, 192 h): > 25 µM; viability at 30 µM ([2]; Homo sapiens, NCI-H2122, 192 h): 78%
CC(C#Cc1ccc(Cl)c(Cl)c1)NC(=O)N1CCN(C(=O)/C=C/C(F)(F)F)CC1 (centres unmarked) [Example 42a, (E)-N-(4-(3,4-dichlorophenyl)but-3-yn-2-yl)-4-(4,4,4-trifluorobut-2-enoyl) piperazine-1-carboxamide] |  |  | IC50 ([2]; Homo sapiens, NCI-H2122, 192 h): < 10 µM
C=CC(=O)NC1(C(=O)NC(C)C#Cc2ccc(Cl)c(Cl)c2)CCCC1 (centres unmarked) [Example 74] |  |  | IC50 ([2]; Homo sapiens, NCI-H2122, 192 h): > 25 µM; viability at 30 µM ([2]; Homo sapiens, NCI-H2122, 192 h): 60%
C=CC(=O)N1CCN(C(=O)NC(C)C#Cc2ccc(Cl)c(N(CC)CC)c2)CC1 (centres unmarked) [Example 32] |  |  | IC50 ([2]; Homo sapiens, NCI-H2122, 192 h): 10 to 25 µM; viability at 30 µM ([2]; Homo sapiens, NCI-H2122, 192 h): 15%
C=CC(=O)NC1CC2CC1CN2C(=O)NC(C)C#Cc1ccc(Cl)c(Cl)c1 (centres unmarked) [Example 55] | > 25 | 100 | 
C=CC(=O)N1CCC(C(=O)NC(C)C#Cc2ccc(Cl)c(Cl)c2)CC1 (centres unmarked) [Example 70] | < 10 | 33 | 
C=CC(=O)N1CCN(C(=O)NC(C)C#Cc2ccc(Cl)c(NC(C)=O)c2)CC1 (racemic) [Example 40, N-(4-(3-acetamido-4-chlorophenyl)but-3-yn-2-yl)-4-acryloylpiperazine-1-carboxamide] |  |  | IC50 ([2]; Homo sapiens, NCI-H2122, 192 h): 10 to 25 µM
CC(C#Cc1ccc(Cl)c(Cl)c1)NC(=O)N1CCN(C(=O)C2(C#N)CC2)CC1 (racemic) [Example 44, 4-(1-cyanocyclopropane-1-carbonyl)-N-(4-(3,4-dichlorophenyl)but-3-yn-2-yl) piperazine-1-carboxamide] |  |  | IC50 ([2]; Homo sapiens, NCI-H2122, 192 h): > 25 µM; viability at 30 µM ([2]; Homo sapiens, NCI-H2122, 192 h): 99%
C=CC(=O)N1CCN(C(=O)NC(C)C#Cc2ccc(F)cc2)CC1 (centres unmarked) [Example 64] |  |  | IC50 ([2]; Homo sapiens, NCI-H2122, 192 h): > 25 µM; viability at 30 µM ([2]; Homo sapiens, NCI-H2122, 192 h): 56%
C=CC(=O)N1CC(N2CCN(C(=O)NC3(C#Cc4ccc(Cl)c(C5(C)CC5)c4)CC3)CC2)C1 [Example 27] |  |  | IC50 ([2]; Homo sapiens, NCI-H2122, 192 h): < 10 µM
C=CC(=O)N1CCN(C(=O)NC(C#Cc2ccc(Cl)c(Cl)c2)CC)CC1 (single isomer, unassigned) [Example 2a] |  |  | IC50 [1]: > 25 µM; % Viability (at 30 μM) [1]: 56%
C=CC(=O)N[C@H]1CC[C@H](C(=O)NC(C)C#Cc2ccc(Cl)c(Cl)c2)CC1 (some centres unmarked) [Example 73] | > 25 | 64 | 
C=CC(=O)N(C)[C@@H]1CCCC[C@H]1N(C)C(=O)NC(C)C#Cc1ccc(Cl)c(Cl)c1 (single isomer, unassigned) [Example 48a] |  |  | IC50 [2]: > 25 µM
CC(C#Cc1ccc(Cl)c(Cl)c1)NC(=O)N1CCN(CC2CO2)CC1 (centres unmarked) [Example 21] |  |  | IC50 ([2]; Homo sapiens, NCI-H2122, 192 h): 10 to 25 µM; viability at 30 µM ([2]; Homo sapiens, NCI-H2122, 192 h): 31%
C=CC(=O)N1CCN(C(=O)NC(C)C#Cc2ccc3ccccc3c2)CC1 (centres unmarked) [Example 9] | > 25 | 47 | 
C=CC(=O)N1CCN(C(=O)NC(C)C#Cc2ccc(Cl)cc2Cl)CC1 (centres unmarked) [Example 30] |  |  | IC50 ([2]; Homo sapiens, NCI-H2122, 192 h): 10 to 25 µM; viability at 30 µM ([2]; Homo sapiens, NCI-H2122, 192 h): 19%
C=CC(=O)N1CCN(C(=O)NC2(C#Cc3ccc(Cl)c(C4(C)CC4)c3)CC2)CC1 [Example 26] |  |  | IC50 ([2]; Homo sapiens, NCI-H2122, 192 h): 10 to 25 µM
CC(C#Cc1ccc(Cl)c(Cl)c1)NC(=O)N1CCN(C(=O)CC#N)CC1 (centres unmarked) [Example 61] |  |  | IC50 ([2]; Homo sapiens, NCI-H2122, 192 h): > 25 µM; viability at 30 µM ([2]; Homo sapiens, NCI-H2122, 192 h): 59%
C=CC(=O)N1CCN(C(=O)NC(C)C#Cc2ccc(Cl)c(Cl)c2)CC1 (single isomer, unassigned) [Example 1b, 4-acryloyl-N-(4-(3,4-dichlorophenyl)but-3-yn-2-yl) piperazine-1-carboxamide] |  |  | IC50 [1]: 10 to 25 µM; % Viability (at 30 μM) [1]: 37%
C=CS(=O)(=O)NC1CCN(C(=O)NC(C)C#Cc2ccc(Cl)c(Cl)c2)CC1 (racemic) [Example 49, N-(4-(3,4-dichlorophenyl)but-3-yn-2-yl)-4-(vinylsulfonamido) piperidine-1-carboxamide] | 10 to 25 | 35 | 
C=CS(=O)(=O)NC1CC2CC1CN2C(=O)NC(C)C#Cc1ccc(Cl)c(Cl)c1 (centres unmarked) [Example 56] | 10 to 25 | 39 | 
C=CC(=O)NC1CCN(C(=O)NC(C)C#Cc2ccc(Cl)c(Cl)c2)CC1 (centres unmarked) [Example 12] | > 25 | 83 | 
C=CC(=O)N1CCN(C(=O)NC(C)C#Cc2cccc3c2cnn3C)CC1 (centres unmarked) [Example 11] | > 25 | 91 | 
C=CC(=O)Nc1ccc(C(=O)NC(C)C#Cc2ccc(Cl)c(Cl)c2)cc1 (racemic) [Example 76, 4-acrylamido-N-(4-(3,4-dichlorophenyl)but-3-yn-2-yl)benzamide] | < 10 | 26 | 
C=CC(=O)N1CCN(C(=O)NC(C)C#Cc2ccc3[nH]ncc3c2)CC1 (centres unmarked) [Example 10] | > 25 | 89 | 
C=CC(=O)N1CCN(C(=O)NC(C#Cc2ccc(Cl)c(Cl)c2)CC)CC1 (single isomer, unassigned) [Example 2b] |  | 57 | IC50 [1]: 10 to 25 µM
C=CS(=O)(=O)N[C@H]1CC[C@H](C(=O)NC(C)C#Cc2ccc(Cl)c(Cl)c2)CC1 (mixture of isomers) [Example 75, (1r,4r)-N-(4-(3,4-dichlorophenyl)but-3-yn-2-yl)-4-(vinylsulfonamido) cyclohexane-1-carboxamide] | < 10 | 10 | 
CCOC(=O)/C=C/C(=O)N1CCN(C(=O)NC(C)C#Cc2ccc(Cl)c(Cl)c2)CC1 (centres unmarked) [Example 57] | < 10 | 17 | 
CC(C#Cc1ccc(Cl)c(Cl)c1)NC(=O)N1CCN(C(=O)/C=C/c2ccccc2)CC1 (centres unmarked) [Example 13] | > 25 |  | 

More lines, main results first:

IC50 ([1]; Homo sapiens, NCI-H1792, 72 h) [µM] | SMILES | viability at 30 µM ([1]; Homo sapiens, NCI-H1792, 72 h) [%] | other results
10 to 25 | CC(C#Cc1ccc(Cl)c(Cl)c1)NC(=O)N1CCN(C(=O)C(C)Cl)CC1 (centres unmarked) [Example 16] | 3 | 
10 to 25 | C=CC(=O)N1CCN(C(=O)NC(C#Cc2ccc(Cl)c(Cl)c2)C(C)C)CC1 (centres unmarked) [Example 4] | 15 | 
10 to 25 | C=CC(=O)N1CCN(C(=S)NC(C)C#Cc2ccc(Cl)c(Cl)c2)CC1 (racemic) [Example 69, 4-Acryloyl-N-(4-(3,4-dichlorophenyl)but-3-yn-2-yl) piperazine-1-carbothioamide] | 18 | 
< 10 | CC(C#Cc1ccc(Cl)c(Cl)c1)NC(=O)N1CCN(C(=O)/C=C/CN(C)C)CC1 (racemic) [Example 47, (E)-N-(4-(3,4-dichlorophenyl)but-3-yn-2-yl)-4-(4-(dimethylamino)but-2-enoyl) piperazine-1-carboxamide] | 26 | 
> 25 | CC(C#Cc1ccc(Cl)c(Cl)c1)NC(=O)N1CCN(C(=O)/C=C/C(N)=O)CC1 (racemic) [Example 65, (E)-4-(4-amino-4-oxobut-2-enoyl)-N-(4-(3,4-dichlorophenyl)but-3-yn-2-yl) piperazine-1-carboxamide] | 73 | 
> 25 | C/C=C/C(=O)N1CCN(C(=O)NC(C)C#Cc2ccc(Cl)c(Cl)c2)CC1 (centres unmarked) [Example 14] |  | 
10 to 25 | C=CC(=O)N1CCN(C(=O)NC(C)C#Cc2ccc(C)c(Cl)c2)CC1 (centres unmarked) [Example 7] | 33 | 
< 10 | C=CC(=O)N1CCN(C(=O)NC(C)C#Cc2ccc(Cl)c(Cl)c2)CC1 (racemic) [Example 1, 4-acryloyl-N-(4-(3,4-dichlorophenyl)but-3-yn-2-yl) piperazine-1-carboxamide] | 40 | 
10 to 25 | C=CC(=O)N1CCN(C(=O)NC(C)C#Cc2ccc(C(F)(F)F)c(Cl)c2)CC1 (centres unmarked) [Example 6] | 19 | 
< 10 | C=CC(=O)N1CC(N2CCN(C(=O)NC(C)C#Cc3ccc(Cl)c(Cl)c3)CC2)C1 (centres unmarked) [Example 8] | 35 | 
< 10 | CC(C#Cc1ccc(Cl)c(Cl)c1)NC(=O)N1CCN(C(=O)CCl)CC1 (centres unmarked) [Example 19] |  | 
< 10 | C=CC(=O)N1CCN(C(=O)NC(C#Cc2ccc(Cl)c(Cl)c2)CC)CC1 (racemic) [Example 2, 4-acryloyl-N-(1-(3,4-dichlorophenyl)pent-1-yn-3-yl)piperazine-1-carboxamide] | 22 | 
> 25 | CC(C)=CC(=O)N1CCN(C(=O)NC(C)C#Cc2ccc(Cl)c(Cl)c2)CC1 (centres unmarked) [Example 15] | 90 | 
